Converted amounts (≈) assume the structure as drawn. Bridge positions count the residues as written; N and C are the ends. Peptide text beside a SMILES is read from it.
Tests used:
[1] = tested on: Human immunodeficiency virus 1; assay: Antiviral activity against HIV-1 NL4-3 infected in human PM1/CCR5 cells after 7 days by WST-8 assay; assay type: functional, organism-based; conditions: Human immunodeficiency virus 1, NL4-3, PM1/CCR5, 168 h
[2] = tested on: Bacillus subtilis; assay: Antibacterial activity against Bacillus subtilis after 24 hrs; assay type: functional
[3] = tested on: Micrococcus luteus; assay: Antibacterial activity against Micrococcus luteus after 24 hrs; assay type: functional
[4] = tested on: Escherichia coli; assay: Antibacterial activity against Escherichia coli after 24 hrs; assay type: functional
[5] = tested on: Staphylococcus aureus; assay: Antibacterial activity against Staphylococcus aureus after 24 hrs; assay type: functional
[6] = tested on: Pseudomonas aeruginosa; assay: Antibacterial activity against Pseudomonas aeruginosa after 24 hrs; assay type: functional

Row | SMILES | IC50 [1] | MIC [2] | MIC [3] | MIC [4] | MIC [5] | MIC [6]
1 | CC(C)C[C@@H]1NC(=O)[C@@H]2CSSC[C@@H]3NC(=O)CNC(=O)[C@H](C)NC(=O)[C@H](Cc4ccccc4)NC(=O)[C@H](CC(=O)N2)NC(=O)[C@H](C(C)C)NC(=O)[C@H](CSSC[C@@H](C(=O)N[C@@H](Cc2ccccc2)C(=O)N[C@@H](Cc2c[nH]c4ccccc24)C(=O)O)NC(=O)[C@H](C(C)C)NC(=O)[C@H](C(C)C)NC(=O)[C@H](C)NC(=O)[C@H](Cc2ccc(O)cc2)NC(=O)CNC3=O)NC(=O)[C@H](CO)NC(=O)CNC(=O)[C@H](C(C)C)NC(=O)CNC1=O (CLGVGSCVDFAGCGYAVVCFW-OH; disulfide 1-13, 7-19; lactam N-9) | 7.2 µM | > 32 µg/mL | 8 µg/mL (≈ 3.75 µM) | > 32 µg/mL | > 32 µg/mL | > 32 µg/mL
2 | CN(C)[C@@H]1C(O)=C(C(N)=O)C(=O)[C@@]2(O)C(O)=C3C(=O)c4c(O)cccc4[C@@](C)(O)[C@H]3C[C@@H]12 [TETRACYCLINE] |  | 1 µg/mL (≈ 2.25 µM) | 0.25 µg/mL (≈ 0.563 µM) | 2 µg/mL (≈ 4.5 µM) | 0.125 µg/mL (≈ 0.281 µM) | 4 µg/mL (≈ 9 µM)

Source: ChEMBL document CHEMBL4308876, “Isolation and structure determination of a new lasso peptide specialicin based on genome mining” (Bioorg Med Chem, 2018)
